# Values quoted from earlier work in patent US20100087454A1, “MUCOSAL BIOADHESIVE SLOW RELEASE CARRIER FOR DELIVERING ACTIVE PRINCIPLES” (priority 2007, published 2010).
# Conditions: after systemic administration orally; relative to 50% inhibitory dose of herpes simplex-1 virus
smiles,measurement,value
Nc1nc2c(ncn2COCCO)c(=O)[nH]1 [acyclovir],peak acyclovir concentrations in saliva,at the lower end of the 50% inhibitory dose of herpes simplex-1 virus
